Measured values as given in DBAASP.
Converted amounts (≈) assume the structure as drawn. Blank lines part the entries; values can stand above or below the compound they belong to.

What was measured:
Test in all cases: ≥ marks a high value that may be exact or a test limit, other limits are often not marked, values filed in µg/mL are converted to µM
[1] = system: Escherichia coli
[2] = system: Staphylococcus aureus ATCC 25923
[3] = system: Staphylococcus aureus ATCC BAA-1683
[4] = system: Candida albicans ATCC 90029
[5] = system: Candida albicans CA1
[6] = system: Candida krusei ATCC 40147
[7] = system: Candida parapsilosis ATCC 90018
[8] = system: Candida tropicalis ATCC 750
[9] = system: Enterococcus faecalis ATCC 51299
[10] = system: Enterococcus faecium ATCC 19434
[11] = system: Escherichia coli ATCC 35218
[12] = system: Klebsiella pneumoniae ATCC 49472
[13] = system: Klebsiella pneumoniae ATCC BAA-2814
[14] = system: Pseudomonas aeruginosa ATCC 27853
[15] = system: Salmonella enterica subsp. enterica serovar Typhimurium ATCC 14028
[16] = system: Staphylococcus aureus ATCC 12600
[17] = system: Staphylococcus aureus ATCC BAA-2312
[18] = system: Achromobacter xylosoxidans
[19] = system: Candida albicans
[20] = system: Escherichia coli UB1005
[21] = system: Pseudomonas aeruginosa M1251
[22] = system: Pseudomonas aeruginosa M1426
[23] = system: Pseudomonas aeruginosa M76
[24] = system: Pseudomonas aeruginosa M917
[25] = system: Pseudomonas aeruginosa PAO1
[26] = system: Pseudomonas aeruginosa R70
[27] = system: Pseudomonas fluorescens
[28] = system: Ralstonia pickettii
[29] = system: Salmonella enterica serovar Typhimurium
[30] = system: Staphylococcus aureus
[31] = system: Stenotrophomonas maltophilia
[32] = system: Escherichia coli 078
[33] = system: Escherichia coli 987P
[34] = system: Escherichia coli ATCC 25922
[35] = system: Escherichia coli K88
[36] = system: Escherichia coli K99
[37] = system: Lacticaseibacillus rhamnosus 1.0385
[38] = system: Lacticaseibacillus rhamnosus 1.0386
[39] = system: Lacticaseibacillus rhamnosus 1.0911
[40] = system: Lacticaseibacillus rhamnosus 1.9205
[41] = system: Lacticaseibacillus rhamnosus 7469
[42] = system: Lactiplantibacillus plantarum 8014
[43] = system: Salmonella enterica subsp. enterica serovar Typhimurium C77-31
[44] = system: Staphylococcus aureus ATCC 29213
[45] = system: Staphylococcus epidermidis ATCC 12228
[46] = system: Streptococcus agalactiae ATCC 13813

SMILES: CC(C)C[C@H](NC(=O)[C@H](CC(C)C)NC(=O)[C@H](CCCN=C(N)N)NC(=O)[C@H](CCCCN)NC(=O)[C@H](CCCCN)NC(=O)[C@@H](N)CCC(=O)O)C(=O)N[C@@H](CCCCN)C(=O)N[C@@H](Cc1c[nH]c2ccccc12)C(=O)N[C@@H](Cc1c[nH]c2ccccc12)C(=O)N[C@@H](CCCN=C(N)N)C(N)=O [EKKRLLKWWR]
MIC [1]: 347 µM (≈ 500 µg/mL)
MIC [2]: 86.6 µM (≈ 125 µg/mL)
MIC [3]: ≥ 86.6 µM

SMILES: CC(C)C[C@H](NC(=O)[C@H](CCCN=C(N)N)NC(=O)[C@@H](NC(=O)[C@H](CCCN=C(N)N)NC(=O)[C@@H]1CCCN1C(=O)[C@H](CCCN=C(N)N)NC(=O)[C@H](CCCCN)NC(=O)[C@@H](N)CCC(N)=O)C(C)C)C(=O)N[C@@H](CO)C(=O)N[C@@H](C)C(=O)O [QKRPRVRLSA]
MIC [32]: ≥ 128 µM
MIC [33]: ≥ 128 µM
MIC [34]: 64 µM (≈ 77.5 µg/mL)
MIC [35]: ≥ 64 µM
MIC [36]: ≥ 64 µM
MIC [20]: ≥ 128 µM
MIC [37]: ≥ 128 µM
MIC [38]: ≥ 128 µM
MIC [39]: ≥ 128 µM
MIC [40]: ≥ 128 µM
MIC [41]: ≥ 128 µM
MIC [42]: ≥ 128 µM
MIC [14]: > 128 µM
MIC [43]: ≥ 128 µM
MIC [2]: > 128 µM
MIC [44]: > 128 µM
MIC [45]: > 128 µM
MIC [46]: ≥ 128 µM

Continued, values first:

MIC [4]: 10 µM (≈ 25.6 µg/mL)
MIC [5]: 10 µM (≈ 25.6 µg/mL)
MIC [6]: 5 µM (≈ 12.8 µg/mL)
MIC [7]: 10 µM (≈ 25.6 µg/mL)
MIC [8]: 10 µM (≈ 25.6 µg/mL)
SMILES: CC[C@H](C)[C@H](NC(=O)[C@H](C)NC(=O)[C@H](CCCCN)NC(=O)[C@H](CC(C)C)NC(=O)[C@H](C)NC(=O)[C@H](Cc1c[nH]c2ccccc12)NC(=O)[C@H](CCCCN)NC(=O)[C@H](C)NC(=O)[C@H](CC(C)C)NC(=O)[C@@H](NC(=O)CNC(=O)[C@H](Cc1c[nH]c2ccccc12)NC(=O)[C@@H](N)Cc1ccccc1)[C@@H](C)O)C(=O)N1CCC[C@H]1C(=O)N[C@@H](C)C(=O)N[C@@H](C)C(=O)N[C@@H](CCSC)C(=O)NCC(=O)N[C@@H](CCSC)C(=O)N[C@@H](CCCCN)C(=O)N[C@@H](CCC(N)=O)C(=O)N[C@@H](CC(N)=O)C(=O)N[C@@H](CCCCN)C(=O)O [FWGTLAKWALKAIPAAMGMKQNK]

MIC [9]: ≥ 250 µM
MIC [10]: ≥ 250 µM
MIC [11]: ≥ 62.5 µM
MIC [12]: ≥ 125 µM
MIC [13]: ≥ 125 µM
MIC [14]: > 125 µM
MIC [15]: 250 µM (≈ 663 µg/mL)
MIC [16]: ≥ 250 µM
MIC [17]: ≥ 250 µM
SMILES: CC[C@H](C)[C@H](NC(=O)[C@H](CC(=O)O)NC(=O)[C@@H](NC(=O)[C@@H](NC(=O)[C@H](C)NC(=O)CN)C(C)C)C(C)C)C(=O)N[C@@H](CC(C)C)C(=O)N[C@@H](CCCCN)C(=O)NCC(=O)N[C@@H](C)C(=O)NCC(=O)N[C@@H](CCCCN)C(=O)N[C@@H](CC(N)=O)C(=O)N[C@@H](CC(C)C)C(=O)N[C@@H](CC(C)C)C(=O)N[C@@H](CO)C(=O)N[C@@H](CC(C)C)C(=O)N[C@@H](C)C(=O)N[C@@H](CC(C)C)C(=O)N[C@@H](CC(N)=O)C(=O)N[C@@H](CCCCN)C(=O)N[C@@H](CC(C)C)C(=O)N[C@@H](CO)C(=O)N[C@@H](CCC(=O)O)C(=O)N[C@@H](CCCCN)C(=O)N[C@H](C(N)=O)C(C)C [GAVVDILKGAGKNLLSLALNKLSEKV]

MIC [18]: 1.35 µM (≈ 4 µg/mL)
MIC [19]: > 43.3 µM
MIC [20]: 0.677 µM (≈ 2 µg/mL)
MIC [21]: 0.677 µM (≈ 2 µg/mL)
MIC [22]: 1.35 µM (≈ 4 µg/mL)
MIC [23]: 1.35 µM (≈ 4 µg/mL)
MIC [24]: 10.8 µM (≈ 32 µg/mL)
MIC [25]: 1.35 µM (≈ 4 µg/mL)
MIC [26]: 0.677 µM (≈ 2 µg/mL)
MIC [27]: 0.677 µM (≈ 2 µg/mL)
MIC [28]: 0.677 µM (≈ 2 µg/mL)
MIC [29]: 1.35 µM (≈ 4 µg/mL)
MIC [30]: > 43.3 µM
MIC [31]: 0.338 µM (≈ 1 µg/mL)
SMILES: CC[C@H](C)[C@H](NC(=O)[C@H](Cc1ccccc1)NC(=O)[C@H](CO)NC(=O)[C@H](CCCCN)NC(=O)[C@H](Cc1c[nH]c2ccccc12)NC(=O)[C@@H](N)CCCCN)C(=O)N[C@@H](CCCCN)C(=O)N[C@@H](CCCCN)C(=O)N[C@@H](CC(C)C)C(=O)N[C@H](C(=O)N[C@@H](CCCCN)C(=O)N[C@@H](C)C(=O)N[C@@H](C)C(=O)N[C@@H](CCCCN)C(=O)N[C@@H](CCCCN)C(=O)N[C@H](C(=O)N[C@H](C(=O)N[C@H](C(=O)N[C@H](C(=O)N[C@@H](C)C(=O)N[C@@H](CCCCN)C(=O)N[C@@H](CCCCN)C(=O)N1CCC[C@H]1C(=O)N[C@@H](CC(C)C)C(=O)N[C@H](C(=O)N[C@H](C(N)=O)C(C)C)[C@@H](C)CC)[C@@H](C)O)[C@@H](C)O)C(C)C)C(C)C)[C@@H](C)O [KWKSFIKKLTKAAKKVVTTAKKPLIV]
